Assay results from patent publication US20210275449A1, “Inhalable Formulation of a Solution Containing Glycopyrronium Bromide” (priority 2020, published 2021).

Tests used:
[1] = Aerodynamic particle size distribution by Andersen Cascade Impactor (ACI); type: physicochemical; settings: Samples I-V, flow rate 28.3 L/min
Method: An Andersen Cascade Impactor instrument (ACI) was used to determine the particle size distribution of Samples I-V. The test was conducted at a flow rate of 28.3 L/min. Deposition of the active substance on each ACI plate was confirmed by high pressure liquid chromatography. The particle size was expressed in terms of mass median aerodynamic diameter (MMAD) and Geometric Standard Deviation (GSD).

[2] = Aerodynamic particle size distribution of Sample VI by Next Generation Impactor (NGI), soft mist inhaler; type: physicochemical; settings: NGI 30 L/minute, RH 90±2%
Method: The aerodynamic particle size distribution was determined using a Next Generation Impactor instrument (NGI). The soft mist inhaler was held close to the NGI inlet until no aerosol was visible. The flow rate of the NGI was set to 30 L/minute and was operated under ambient temperature and a relative humidity (RH) of 90±2%.
Sample VI was discharged into the NGI. Fractions of the dose were deposited at different stages of the NGI, in accordance with the particle size of the fraction. Each fraction was washed from the stage and analyzed using HPLC.
The particle size distribution was expressed in terms of mass median aerodynamic diameter (MMAD) and geometric standard deviation (GSD).

Substance: (3RS)-3-[(2 SR)-(2-cyclopentyl-2-hydroxy-2-penylacetyl)oxy]-1,1-dimethlypyrrolidinium bromide [Glycopyrronium bromide]
- GSD [1]: 1.7
- MMAD [1]: 4.4 μm
- Fine Particle Fraction (FPF) [2]: 70.45%
- Fine particle dose (FPD) [2]: 8.44 µg
- GSD [2]: less than 2
- MMAD [2]: less than 6 μm
- GSD ([2]; listed as Glycopyrrolate): 1.77
- MMAD ([2]; listed as Glycopyrrolate): 4.05 μm
